The text below walks through data of patent US20100144741A1, “ETHANOLAMINE DERIVATIVES USEFUL AS BACE INHIBITORS” (priority 2006, published 2010).

The assay concerns the target T1, Human BACE (Homo sapiens, UniProt P56817).
T1 construct: Recombinant BACE (extracellular domain, expressed in baculovirus and purified using standard methods); made in house
The assay is described as follows: Test 1: Inhibition of Human BACE. Format: biochemical. To be noted: recombinant BACE extracellular domain, fluorescence-quenched APP-derived peptide substrate, acetate buffer pH 4.5. On the procedure:
Test 1: Inhibition of Human BACE
Recombinant BACE (extracellular domain, expressed in baculovirus and purified using standard methods) at 0.1-10 nM concentration is incubated with the test compound at various concentrations for 1 hour at room temperature in 10-100 mM acetate buffer, pH 4.5, containing 0.1% CHAPS. Synthetic fluorescence-quenched peptide substrate, derived from the sequence of APP and containing a suitable fluorophore-quencher pair is added to a final concentration of 1-5 μM and the increase in fluorescence is recorded at a suitable excitation/emission wavelength in a microplate spectro-fluorimeter for 5-30 minutes in 1-minute intervals. IC50 values are calculated from percentage of inhibition of BACE-activity as a function of the test compound concentration.

T1 sequence (P56817 46-457 limits assumed): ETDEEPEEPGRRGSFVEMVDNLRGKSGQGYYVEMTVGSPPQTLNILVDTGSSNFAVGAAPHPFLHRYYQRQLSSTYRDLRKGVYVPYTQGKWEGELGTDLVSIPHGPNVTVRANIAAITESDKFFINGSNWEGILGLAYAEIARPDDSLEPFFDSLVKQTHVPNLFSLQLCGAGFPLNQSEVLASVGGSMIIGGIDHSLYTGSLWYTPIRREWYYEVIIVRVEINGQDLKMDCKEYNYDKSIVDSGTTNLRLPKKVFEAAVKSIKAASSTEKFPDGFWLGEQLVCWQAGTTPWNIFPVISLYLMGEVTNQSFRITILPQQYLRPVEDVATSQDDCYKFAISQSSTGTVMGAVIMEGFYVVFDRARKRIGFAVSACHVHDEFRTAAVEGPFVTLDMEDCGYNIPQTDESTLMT

Turning to `CC(=O)N[C@@H](Cc1ccc(Nc2cc(-c3ccccc3)ncn2)cc1)[C@H](O)CNC1(c2cccc(C(C)C)c2)CC1` [Example 2, N-{(1S,2R)-2-Hydroxy-3-[1-(3-isopropyl-phenyl)-cyclopropylamino]-1-[4-(6-phenyl-pyrimidin-4-ylamino)-benzyl]-propyl}-acetamide], the concentration for half-maximal inhibition (IC50) amounted to 23 µM.

By IC50 is commonly meant the concentration at which inhibition is half-maximal.
